Among the data in patent US20120149678A1, “Organonitro Compounds for Use in Treating Non-Hodgkin's Lymphoma and Leukemia, and Methods Relating Thereto” (priority 2010, published 2012) are Daudi cell apoptosis and ABDNAZ-induced apoptosis values, retold here.

In this assay the test system is B-cell lymphoma Daudi cells. The assay can be described thus: ABDNAZ-induced apoptosis of B-cell lymphoma Daudi cells (sub-G1 cells, propidium iodide staining, flow cytometry). Format: cell-based. How it is done: B-cell lymphoma Daudi cells were grown and maintained in Dulbecco's modified essential medium (DMEM) (INVITROGEN™, Grand Island, N.Y.) supplemented with 10% fetal calf serum, 100 units/mL penicillin, and 100 μg/mL streptomycin in a 37° C. humidified incubator with a mixture of 95% air and 5% CO2. Experiments were performed on exponentially growing cells with a cell population doubling time of approximately 20-36 hours.
After exposing the B-cell lymphoma Daudi cells to ABDNAZ, apoptotic cell death was quantitated by measuring the number of subdiploid (sub-G1) cells stained with propidium iodide (PI), according to a procedure described previously by Ning and coworkers. Ning, S., and Knox, S. J. in Int. J. Radiat. Oncol. Biol. Phys. (2004) 60:197-203. Briefly, ABDNAZ-treated and untreated control cells were collected and fixed with cold 100% ethanol. Cells were pelleted, treated with 100 μg/mL of RNase A in PBS-EDTA solution for 30 min and stained with 50 μg/mL of PI for 10 min at room temperature. The DNA content was analyzed with a FACScan flowcytometer (Becton Dickison, San Jose, Calif.). The percentage of cells in the sub-G1 phase was calculated as described previously by Ning and coworkers.
To examine whether ABDNAZ-induced apoptotic cell death was due to the generation of reactive oxygen species (ROS), Daudi cells were treated with a glutathione (GSH) precursor, N-acetylcysteine (NAC), and a GSH synthesis inhibitor, buthionine-(S,R)-sulfoxime (BSO), and the level of apoptosis was measured.
On the technique in general: Flow cytometry measures light scatter and fluorescence of single cells or particles in a stream.

On to `O=C(CBr)N1CC([N+](=O)[O-])([N+](=O)[O-])C1` [ABDNAZ, 1-bromoacetyl-3,3-dinitroazetidine], for which the Daudi cell apoptosis is, setting by setting: (2 mM ABDNAZ, measured at 24 hours (FIG. 1)) 30%; (4 mM ABDNAZ, measured at 72 hours after exposure (FIG. 1)) 45%. Moreover, the ABDNAZ-induced apoptosis (Daudi cells pre-treated with N-acetylcysteine (GSH precursor) (FIG. 2)) is on record as 5%; the ABDNAZ-induced apoptosis (Daudi cells pre-treated with buthionine-(S,R)-sulfoxime (GSH synthesis inhibitor) (FIG. 2)) is reported as 25%; the ABDNAZ-induced apoptosis (Daudi cells, ABDNAZ without pre-treatment (FIG. 2)) amounted to 11%.
